Measurements from US7659251B2, “Ligand for G-protein coupled receptor FPRL2” (priority 2004, dated 2010).

Experiments:
monocyte-derived DCs = assay: Ca2+ mobilization assay on monocyte-derived DCs; assay type: cell-based, human; details: dose-dependent; FIG. 13A
Protocol: (§1) Monocyte-derived DCs were generated either from the adherent fraction of PBMCs cultured with GM-CSF (800 U/ml) and […] (500 U/ml), or from Percoll-purified monocytes cultured with GM-CSF (50 ng/ml) and IL-13 (20 ng/ml), for 5 to 7 days. For Ca^2+ mobilization assay, monocytes were obtained by negative selection with the Monocyte Isolation Kit II (Miltenyi Biotec). […] For Ca^2+ mobilization assays, monocyte-derived DCs or monocytes (5×10^5 cells/ml in HBSS without phenol red but containing 0.1% BSA and 1 mM Probenecid (Sigma)) were loaded with 4 μM Fluo 4 (Molecular Probes) for 1 h at 20° C. in the dark. The loaded cells were washed twice, resuspended at 1 to 2×10^6 cells/ml and 50 μl of cell suspension was distributed per well of a 96 well plate (Viewplate, Packard Bioscience). Reading was performed in a Fluostar fluorimeter (BMG) at 25° C.: 50 μl of ligand-containing medium was injected, and the fluorescence at 520 nm was recorded every second for 1 to 3 min. Each condition was performed in triplicate, the mean fluorescence for each time point was calculated, and the curves were normalized by subtracting the mean value of the five measurements preceding the injection.

monocytes = assay: Ca2+ mobilization assay on monocytes; assay type: cell-based, human; details: 100 nM F2L; FIG. 13C
Protocol: as §1

FPRL2 = biological target: T1, FPRL2 (Homo sapiens, UniProt P25089); assay: Cell surface FPRL2 on DCs by FACS after culture with F2L; assay type: cell-based; design: expressed in transfected cells; host or cells: CHO-K1; details: 1 μM F2L for 48 hours; not shown
T1 sequence (P25089 1-353): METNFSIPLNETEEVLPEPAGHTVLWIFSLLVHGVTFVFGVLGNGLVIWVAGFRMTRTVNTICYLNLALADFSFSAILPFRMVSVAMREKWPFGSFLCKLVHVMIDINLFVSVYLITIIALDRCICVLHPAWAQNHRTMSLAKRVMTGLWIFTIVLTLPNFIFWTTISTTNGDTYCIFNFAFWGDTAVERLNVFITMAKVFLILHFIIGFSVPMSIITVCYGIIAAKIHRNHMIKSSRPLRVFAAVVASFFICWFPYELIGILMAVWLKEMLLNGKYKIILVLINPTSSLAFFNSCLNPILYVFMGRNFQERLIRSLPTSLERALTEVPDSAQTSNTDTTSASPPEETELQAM
Protocol: Antibodies were generated by injecting BALB/c mice with 100 μg pcDNA3-FPRL2 as described (45). Sera were tested by FACS on the CH0-K1-FPRL2 cell line, and immune mice were used to generate monoclonal antibodies by standard hybridoma technology, using the NSO myeloma cell line. The Ig class of selected hybridomas was determined with a mouse mAb isotyping kit (IsoStrip, Boehringer Mannheim). The antibodies were tested using flow cytometry, performed using anti-FPRL2 antibodies or control IgG2a at 1 μg/ml (for CHO-K1 cells) or 5 μg/ml (for primary cells) in PBS containing 0.1% BSA, 0.1% sodium azide, and FITC-conjugated γ-chain-specific goat anti-mouse IgG (Sigma) as secondary antibody. Fluorescence of 10,000 cells was assayed using a FACScan flow cytofluorimeter (Beckton Dickinson). Intracytoplasmic staining was realised using Cytoperm/Cytowash (Becton Dickinson) according to manufacturer's instructions.

FPR = biological target: T2, FPR (Homo sapiens, UniProt P21462, E346A/V101L); assay: cAMP accumulation assay (HTRF, forskolin) on FPR-expressing CHO-K1 cells; assay type: cell-based
T2 construct: expressed in transfected cells; host or cells: CHO-K1 (with or without Galpha16 and apoaequorin)
T2 sequence (P21462 1-350 V101L/E346A): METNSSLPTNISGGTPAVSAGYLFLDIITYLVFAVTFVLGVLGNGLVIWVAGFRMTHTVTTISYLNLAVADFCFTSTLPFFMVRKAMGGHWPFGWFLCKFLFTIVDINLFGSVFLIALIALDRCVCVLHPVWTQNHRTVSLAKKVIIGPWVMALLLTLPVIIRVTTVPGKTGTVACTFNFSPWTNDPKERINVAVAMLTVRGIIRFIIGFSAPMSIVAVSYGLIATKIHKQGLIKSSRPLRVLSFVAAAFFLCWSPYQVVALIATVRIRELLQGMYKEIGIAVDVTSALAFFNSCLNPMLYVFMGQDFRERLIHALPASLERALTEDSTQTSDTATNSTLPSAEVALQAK
Protocol: The cAMP concentrations were determined using a homogeneous time-resolved fluorescence (HTRF) kit (Cis Bio International). Briefly, cells were detached, resuspended in Krebs Ringer Hepes buffer containing 1 mM 3-Isobutyl-1-methylxanthine, and submitted to 10 μM forskolin, alone or together with increasing concentrations of agonists for 30 min at room temperature. The reaction was stopped by the successive addition of cAMP-XL665 and anti-cAMP cryptate diluted in lysis buffer. The plates were incubated for 60 min at room temperature and read on a Rubystar fluorimeter (BMG). […] A calibration curve was obtained by plotting delta F % versus cAMP concentrations. […] The aequorin-based assay was performed with or without overnight pretreatment with 100 ng/ml Pertussis toxin. […] For FPRL2 polymorphism analysis, HEK cells were transiently transfected with empty and wild-type or Asp338H is FPRL2-containing pcdna vector using calcium phosphate method. Cells were recovered 48 hours later and used for FACS or cAMP experiments.

FPRL1 = biological target: T3, FPRL1 (Homo sapiens, UniProt P25090); assay: Competition binding on FPRL1-expressing CHO-K1 cells, tracer [125I]-WKYMVm; details: up to concentrations of 3 μM
T3 construct: expressed in transfected cells; host or cells: CHO-K1 (with or without Galpha16 and apoaequorin)
T3 sequence (P25090 1-351): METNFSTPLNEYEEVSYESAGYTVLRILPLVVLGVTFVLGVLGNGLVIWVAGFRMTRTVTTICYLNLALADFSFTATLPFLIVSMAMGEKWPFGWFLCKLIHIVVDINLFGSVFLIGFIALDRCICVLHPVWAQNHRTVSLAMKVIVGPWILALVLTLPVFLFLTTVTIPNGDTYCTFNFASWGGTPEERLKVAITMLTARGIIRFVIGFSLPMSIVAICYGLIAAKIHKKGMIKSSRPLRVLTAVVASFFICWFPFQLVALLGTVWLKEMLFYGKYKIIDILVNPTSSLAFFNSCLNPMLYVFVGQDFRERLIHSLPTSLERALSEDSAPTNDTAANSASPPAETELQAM
Protocol: FPRL2, FPRL1 and FPR-expressing CHO-K1 cells were plated in 24 wells plates (200,000 cells per well for FPRL2, and 100,000 cells per well for the two other receptors). The next day, the cells were washed twice with a KRH buffer containing 280 mM saccharose and, for FPRL1 and FPR, 0.1 % NaN3. […] Cells were washed twice with ice cold buffer, total radioactivity was recovered with 1 M […] and counted in a gamma counter for […]

CC[C@H](C)[C@H](NC(=O)[C@H](CCSC)NC(=O)CNC(=O)[C@H](CC(C)C)NC(=O)[C@H](CCSC)NC(C)=O)C(=O)N[C@@H](CCCCN)C(=O)N[C@@H](CC(N)=O)C(=O)N[C@@H](CO)C(=O)N[C@@H](CC(C)C)C(=O)N[C@@H](Cc1ccccc1)C(=O)NCC(=O)N[C@@H](CO)C(=O)N[C@H](C(=O)N[C@@H](CCC(=O)O)C(=O)N[C@H](C(=O)N[C@@H](Cc1c[nH]c2ccccc12)C(=O)N1CCC[C@H]1C(=O)N[C@@H](Cc1c[nH]c2ccccc12)C(=O)N[C@@H](CCC(N)=O)C(=O)N[C@H](C(=O)N[C@@H](CC(C)C)C(=O)O)C(C)C)[C@@H](C)O)C(C)C [F2L]
intracellular Ca2+ flux in immature DCs (monocyte-derived DCs): promoted intracellular Ca^2+ flux
calcium mobilization in purified monocytes (monocytes): Calcium mobilization was also observed
cell surface FPRL2 on DCs (FPRL2): down regulation
inhibition of cAMP accumulation on FPR (FPR; 1 μM F2L): only partial inhibition
EC50 (FPR; FPR, −Log of EC50 in Mol/L, mean ± s.e.m., read-out: pEC50 (cAMP assay) (converted)): > 1000 nM
competition for FPRL1 binding (FPRL1): no competition
